Results as given in PMC5238559, “Biomimetic synthesis and HPLC–ECD analysis of the isomers of dracocephins A and B” (Beilstein Journal of Organic Chemistry, 2016).
In brackets after ≈: the same amount, converted by molar mass. Read-outs that look alike come from different tables or passages of the source.

Legend:
[1] = pKa determination by aqueous titrations; format: physicochemical; conditions: aqueous solution, phenolic hydroxy group
Protocol: (§1) n-octanol. From the n-octanol containing titrations the poKa (the apparent ionization constant in the presence of n-octanol) and then logP values were estimated and refined by a weighted non-linear least-squares procedure, where the aqueous pKa values (taken from aqueous titrations) were used as unrefined contributions. For each compound a minimum of three to six titrations at different phase volume ratios were measured, and the respective average logP values were calculated. logD values were also calculated by logP and pKa values using the Henderson– Hasselbalch equation. The relevant relationships between logP, pKa, and poKa, for mono- and multiprotic substances, including cases of ion-pair formation, have been described in detail earlier. […]

[2] = logP determination by titrations in the presence of n-octanol; logD calculated from logP and pKa; format: physicochemical; conditions: n-octanol/water; for logP: lipophilicity of neutral species; for logD: calculated from logP and pKa by Henderson–Hasselbalch equation
Protocol: as §1

[3] = in vitro; format: in vitro ADME; conditions: pig, PAMPA, pH 7.4
Protocol: Physicochemical characterization of dracocephins A and B was also carried out. […] Similarly to this lipophilicity trend, the TPSA value of (±)-naringenin is lower than dracocephins A and B, however, there is no difference between the calculated TPSA values of 2a–d and 3a–d. […] Among these proton-dissociation constants, the lowest acidic pKa values are predominant in physiological environment, which is also indicated by the difference of log D values between pH 7.4 and pH 6.5. The blood–brain barrier (BBB) specific penetration of dracocephins isomers has also been studied by the PAMPA (parallel artificial membrane permeability assay)-BBB model system, which indicates passive diffusion of test compounds across the brain capillary endothelium. […]
n-octanol. […] For each compound a minimum of three to six titrations at different phase volume ratios were measured, and the respective average logP values were calculated. logD values were also calculated by logP and pKa values using the Henderson– Hasselbalch equation. […]
(§2) for 4 h. After the incubation, PAMPA sandwich plates are separated and compound concentrations in donor and acceptor solutions are determined by HPLC-DAD. […]
(§3) Cytotoxicity on SH-SY5Y cells: Cytotoxicity on SH-SY5Y cells was measured in an analogous manner as described in the literature. […]

[4] = Cytotoxicity on SH-SY5Y cells (MTT); format: cell-based; conditions: human, undifferentiated SH-SY5Y neuroblastoma cells
Protocol: for 4 h. After the incubation, PAMPA sandwich plates are separated and compound concentrations in donor and acceptor solutions are determined by HPLC-DAD.
SH-SY5Y neuroblastoma was cultured in EMEM media supplemented with non-essential amino acids, 1 mM Na pyruvate and 10% inactivated fetal bovine serum, nystatin, 2 mM L-glutamine, 100 U penicillin and 0.1 mg streptomycin, purchased from Sigma. Cells were cultured at 37 °C and 5% CO2. […]
as §3
(§4) were read after o/n incubation. Fifty percent inhibitory concentrations (IC50) were calculated using nonlinear regression curve fitting of log (inhibitor) versus normalized response and variable slope with a least squares (ordinary) fit of GraphPad Prism 5 software, for three independent samples.
Evaluation of compounds effect on rhodamine 123 accumulation: Rd123 concentration inside L5178PAR and L5178MDR cells was determined by flow cytometry.
Briefly, 2 × 10^6 cells/mL were treated with 2 and 20 μM of each compound and incubated for 10 min at rt. […] The fluorescence of the samples was measured by flow cytometry (Becton Dickinson FACScan, BD, U.S.). […]
Fluorescence activity ratio measures the capacity of inhibition (accumulation of Rd123) and it is equal to the ratio between the FL-1 values of the L5178MDR cells […]

[5] = test system: P-glycoprotein (P-gp); assay: Rhodamine 123 accumulation in P-gp transfected L5178MDR cells; format: cell-based; conditions: 2 and 20 μM of compound
Protocol: In connection with the BBB penetration studies, 2a–d and 3a–d were tested for their potential towards CNS cytotoxic activity on undifferentiated SH-SY5Y neuroblastoma cells. […] On the other hand, the possibility for neuroprotective activity could not be tested with the applied experimental setup. As an additional bioassay on compounds 2a–d and 3a–d, their potential to interfere with the function of P-glycoprotein (P-gp) was tested. By transporting a wide variety of compounds from the CNS back into the blood stream, P-gp is an important element of the BBB [16]. […]
as §2, §3, §4
Evaluation of compounds effect on rhodamine 123 accumulation: Rd123 concentration inside L5178PAR and L5178MDR cells was determined by flow cytometry. […]

[6] = DPPH radical scavenging test; conditions: microplate format
Protocol: Antioxidant activity: The radical scavenging capacity of dracocephins A and B were
tested in the microplate format of the 2,2-diphenyl-1-picrylhydrazyl (DPPH) assay.
Naringenin and quercetin were obtained from PhytoLab (Vestenbergsgreuth,
Germany), and used as controls. […]

[7] = first value in cell, read-out: pKa (first, lowest acidic)
[8] = second value in cell, read-out: pKa (second) (converted)
[9] = third value in cell, read-out: pKa (third) (converted)

pKa [1, 7] | pKa [1, 8] | pKa [1, 9] | logP [2] | logD ([2]; pH 6.5, read-out: log D6.5) | logD ([2]; pH 7.4, read-out: log D7.4) | Papp at 4 h, 100 µM [3] [nm/s] | IC50 DPPH radical scavenging [6] [mg/L] | Molecule | IC50 at 48 h [4] [µM] | P-gp inhibition (rhodamine 123 accumulation) [5]
6.69 ± 0.01 | 9.47 | 12.3 | 2.52 ± 0.02 | 2.31 | 1.74 | 11 ± 1 | > 200 | O=C1CCC(c2c(O)cc3c(c2O)C(=O)CC(c2ccc(O)cc2)O3)N1 (stereo not drawn) [2a–d, 6-(2”-pyrrolidinone-5”-yl)naringenin] | > 150 | none of the synthesized compounds inhibits this transporter
6.54 | 9.54 | 12 | 2.39 ± 0.02 | 2.12 | 1.51 | – | > 200 | O=C1CCC(c2c(O)cc(O)c3c2OC(c2ccc(O)cc2)CC3=O)N1 (stereo not drawn) [3a–d, 8-(2”-pyrrolidinone-5”-yl)naringenin] | > 150 | none of the synthesized compounds inhibits this transporter
– | – | – | – | – | – | – | 9.4 ± 0.6 (≈ 31.1 µM) | O=c1c(O)c(-c2ccc(O)c(O)c2)oc2cc(O)cc(O)c12 [quercetin, reference compound] | – | –

Molecule | pKa [1, 7] | pKa [1, 8] | pKa [1, 9] | logP [2] | logD ([2]; pH 6.5, read-out: log D6.5) | logD ([2]; pH 7.4, read-out: log D7.4) | Papp at 4 h, 100 µM [3] [nm/s] | IC50 DPPH radical scavenging [6] [mg/L] | IC50 at 48 h [4] [µM] | P-gp inhibition (rhodamine 123 accumulation) [5]
naringenin [(±)-1, reference compound] | – | – | – | – | – | – | – | > 200 | – | –
